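Interpolation was linear, between the two tested concentrations surrounding the appropriate level; five concentrations were tested over 48 hours in 96-well plates. The concentration for full growth arrest is given as TGI.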
Experiments:
Assay in all cases: NCI tumour cell line growth inhibition, 48 h
[1] = system: 786-0 renal
[2] = system: A549 NSCLC
[3] = system: ACHN renal
[4] = system: BT-549 breast
[5] = system: CAKI-1 renal
[6] = system: CCRF-CEM leukemia
[7] = system: COLO 205 colon
[8] = system: DU-145 prostate
[9] = system: EKVX NSCLC
[10] = system: HCC-2998 colon
[11] = system: HCT-116 colon
[12] = system: HCT-15 colon
[13] = system: HL-60(TB) leukemia
[14] = system: HOP-62 NSCLC
[15] = system: HOP-92 NSCLC
[16] = system: HS 578T breast
[17] = system: HT29 colon
[18] = system: IGROV1 ovarian
[19] = system: K-562 leukemia
[20] = system: KM12 colon
[21] = system: LOX IMVI melanoma
[22] = system: M14 melanoma
[23] = system: MALME-3M melanoma
[24] = system: MCF7 breast
[25] = system: MDA-MB-231 breast
[26] = system: MDA-MB-435
[27] = system: MDA-N
[28] = system: MOLT-4 leukemia
[29] = system: NCI-H226 lung
[30] = system: NCI-H23 lung
[31] = system: NCI-H460 lung
[32] = system: NCI-H522 lung
[33] = system: NCI/ADR-RES ovarian
[34] = system: OVCAR-3 ovarian
[35] = system: OVCAR-4 ovarian
[36] = system: OVCAR-5 ovarian
[37] = system: OVCAR-8 ovarian
[38] = system: PC-3 prostate
[39] = system: RPMI-8226 leukemia
[40] = system: SF-268 CNS
[41] = system: SF-295 CNS
[42] = system: SF-539 CNS
[43] = system: SK-MEL-2 melanoma
[44] = system: SK-MEL-28 melanoma
[45] = system: SK-MEL-5 melanoma
[46] = system: SK-OV-3 ovarian
[47] = system: SN12C renal
[48] = system: SNB-19 CNS
[49] = system: SNB-75 CNS
[50] = system: SR leukemia
[51] = system: SW-620 colon
[52] = system: T-47D breast
[53] = system: U251 CNS
[54] = system: UACC-257 melanoma
[55] = system: UACC-62 melanoma
[56] = system: UO-31 renal
[57] = system: TK-10 renal

Nn1c(Cc2ccc([N+](=O)[O-])cc2)n[nH]c1=O
TGI [1]: > 100 µM | TGI [2]: > 100 µM | TGI [3]: > 100 µM | TGI [4]: > 100 µM | TGI [5]: > 100 µM | TGI [6]: > 100 µM | TGI [7]: > 100 µM | TGI [8]: > 100 µM | TGI [9]: > 100 µM | TGI [10]: > 100 µM | TGI [11]: > 100 µM | TGI [12]: > 100 µM | TGI [13]: > 100 µM | TGI [14]: > 100 µM | TGI [15]: > 100 µM | TGI [16]: > 100 µM | TGI [17]: > 100 µM | TGI [18]: > 100 µM | TGI [19]: > 100 µM | TGI [20]: > 100 µM | TGI [21]: > 100 µM | TGI [22]: > 100 µM | TGI [23]: > 100 µM | TGI [24]: > 100 µM | TGI [25]: > 100 µM | TGI [26]: > 100 µM | TGI [27]: > 100 µM | TGI [28]: > 100 µM | TGI [29]: > 100 µM | TGI [30]: > 100 µM | TGI [31]: > 100 µM | TGI [32]: > 100 µM | TGI [33]: > 100 µM | TGI [34]: > 100 µM | TGI [35]: > 100 µM | TGI [36]: > 100 µM | TGI [37]: > 100 µM | TGI [38]: > 100 µM | TGI [39]: > 100 µM | TGI [40]: > 100 µM | TGI [41]: > 100 µM | TGI [42]: > 100 µM | TGI [43]: > 100 µM | TGI [44]: > 100 µM | TGI [45]: > 100 µM | TGI [46]: > 100 µM | TGI [47]: > 100 µM | TGI [48]: > 100 µM | TGI [49]: > 100 µM | TGI [50]: > 100 µM | TGI [51]: > 100 µM | TGI [52]: > 100 µM | TGI [53]: > 100 µM | TGI [54]: > 100 µM | TGI [55]: > 100 µM | TGI [56]: > 100 µM

COC(=O)/C=C/c1cc2c(cc1-c1c(C(=O)O)cc(OC)c(OC)c1OC)OCO2
TGI [1]: > 10 µM | TGI [2]: > 10 µM | TGI [3]: > 10 µM | TGI [4]: > 10 µM | TGI [5]: > 10 µM | TGI [6]: > 10 µM | TGI [7]: > 10 µM | TGI [8]: > 10 µM | TGI [10]: > 10 µM | TGI [11]: > 10 µM | TGI [12]: > 10 µM | TGI [13]: > 10 µM | TGI [14]: > 10 µM | TGI [15]: > 10 µM | TGI [16]: > 10 µM | TGI [17]: > 10 µM | TGI [18]: > 10 µM | TGI [19]: > 10 µM | TGI [20]: > 10 µM | TGI [21]: > 10 µM | TGI [22]: > 10 µM | TGI [23]: > 10 µM | TGI [24]: > 10 µM | TGI [25]: > 10 µM | TGI [26]: > 10 µM | TGI [27]: > 10 µM | TGI [28]: > 10 µM | TGI [30]: > 10 µM | TGI [32]: > 10 µM | TGI [33]: > 10 µM | TGI [34]: > 10 µM | TGI [35]: > 10 µM | TGI [37]: > 10 µM | TGI [38]: > 10 µM | TGI [39]: > 10 µM | TGI [40]: > 10 µM | TGI [41]: > 10 µM | TGI [42]: > 10 µM | TGI [44]: > 10 µM | TGI [45]: > 10 µM | TGI [46]: > 10 µM | TGI [47]: > 10 µM | TGI [48]: > 10 µM | TGI [49]: > 10 µM | TGI [50]: > 10 µM | TGI [51]: > 10 µM | TGI [52]: > 10 µM | TGI [57]: > 10 µM | TGI [53]: > 10 µM | TGI [54]: > 10 µM | TGI [55]: > 10 µM
